The subject of data set [1] is BXPC-3. The data set is described as follows: cells. Particulars: Homo sapiens, BXPC-3, 72 h, read-out: INH.
Description: Antiproliferative activity against SMAD4/ME2-null human BXPC-3 cells assessed as inhibition of cell growth at 10 uM incubated for 72 hrs by CellTiter-Glo luminescence assay
In data set [2] the target is T1, NADP-dependent malic enzyme, mitochondrial (Homo sapiens, UniProt Q16798).
T1 sequence (Q16798 whole entry): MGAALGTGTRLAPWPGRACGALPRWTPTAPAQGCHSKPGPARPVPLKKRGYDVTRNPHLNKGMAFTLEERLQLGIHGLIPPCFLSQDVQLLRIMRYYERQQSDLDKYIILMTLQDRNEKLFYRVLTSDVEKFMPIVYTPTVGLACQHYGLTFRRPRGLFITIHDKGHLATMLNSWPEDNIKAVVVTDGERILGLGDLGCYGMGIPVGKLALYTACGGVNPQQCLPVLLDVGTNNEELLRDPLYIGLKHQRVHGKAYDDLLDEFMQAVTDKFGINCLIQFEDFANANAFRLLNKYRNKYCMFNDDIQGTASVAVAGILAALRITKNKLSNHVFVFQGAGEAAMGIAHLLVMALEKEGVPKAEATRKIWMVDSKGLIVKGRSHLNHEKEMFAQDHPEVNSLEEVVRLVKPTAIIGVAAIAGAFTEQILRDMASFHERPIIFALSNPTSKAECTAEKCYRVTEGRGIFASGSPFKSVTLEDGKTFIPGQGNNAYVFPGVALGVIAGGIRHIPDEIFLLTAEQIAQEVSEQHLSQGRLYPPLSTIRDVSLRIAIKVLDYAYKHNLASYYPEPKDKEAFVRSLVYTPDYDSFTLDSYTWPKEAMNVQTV
Description: Inhibition of His-tagged human recombinant ME3 (26 to 604 residues) using L-malate and beta-NADP+ as substrate preincubated with enzyme for 5 mins followed by beta-NADP+ challenge and incubated under shaking for 5 mins followed by incubation for 3 hrs without shaking by resorufin dye based fluorescence analysis

The target in data set [3] is NAD-dependent malic enzyme, mitochondrial (Homo sapiens, UniProt P23368). As to the kind of experiment: Inhibition of His-tagged human recombinant full length ME2 using L-malate and beta-NAD+ as substrate preincubated with enzyme for 5 mins followed by beta-NAD+ challenge and incubated under shaking for 5 mins followed by incubation for 2 hrs without shaking by resorufin dye based fluorescence analysis. Particulars: read-out: IC50.
Sequence of NAD-dependent malic enzyme, mitochondrial (P23368 whole entry): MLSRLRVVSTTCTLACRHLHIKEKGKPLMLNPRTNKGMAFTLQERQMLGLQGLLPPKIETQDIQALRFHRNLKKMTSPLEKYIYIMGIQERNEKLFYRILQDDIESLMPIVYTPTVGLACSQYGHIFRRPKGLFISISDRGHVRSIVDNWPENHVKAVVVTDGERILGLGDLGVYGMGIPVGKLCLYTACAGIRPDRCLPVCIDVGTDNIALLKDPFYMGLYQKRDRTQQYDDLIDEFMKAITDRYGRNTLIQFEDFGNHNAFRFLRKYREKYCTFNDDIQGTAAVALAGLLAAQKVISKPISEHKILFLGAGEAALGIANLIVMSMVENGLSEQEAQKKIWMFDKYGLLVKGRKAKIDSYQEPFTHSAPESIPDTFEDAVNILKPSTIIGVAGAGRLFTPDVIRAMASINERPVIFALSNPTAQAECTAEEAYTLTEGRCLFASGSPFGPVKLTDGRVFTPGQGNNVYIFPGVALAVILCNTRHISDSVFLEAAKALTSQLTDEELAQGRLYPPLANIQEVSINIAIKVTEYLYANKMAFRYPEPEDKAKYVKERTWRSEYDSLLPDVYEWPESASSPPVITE

For data set [4], the target named is T2, NADP-dependent malic enzyme (Homo sapiens, UniProt P48163).
T2 sequence (P48163 whole entry): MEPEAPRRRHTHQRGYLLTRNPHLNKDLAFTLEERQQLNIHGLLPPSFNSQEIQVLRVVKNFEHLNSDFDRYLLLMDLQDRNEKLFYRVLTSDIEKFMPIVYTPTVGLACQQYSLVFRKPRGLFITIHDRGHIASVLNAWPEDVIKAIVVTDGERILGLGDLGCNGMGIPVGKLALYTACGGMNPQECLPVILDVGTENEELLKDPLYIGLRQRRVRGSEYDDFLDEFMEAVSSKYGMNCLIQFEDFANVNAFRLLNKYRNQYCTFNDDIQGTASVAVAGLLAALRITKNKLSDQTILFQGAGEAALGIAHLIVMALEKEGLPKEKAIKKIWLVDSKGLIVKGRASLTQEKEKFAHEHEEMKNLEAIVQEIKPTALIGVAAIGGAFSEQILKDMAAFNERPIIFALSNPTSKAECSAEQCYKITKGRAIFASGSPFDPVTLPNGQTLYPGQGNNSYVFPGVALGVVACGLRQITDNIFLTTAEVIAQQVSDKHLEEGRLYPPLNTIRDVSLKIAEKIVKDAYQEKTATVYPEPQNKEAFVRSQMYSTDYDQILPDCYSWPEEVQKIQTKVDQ
As to the kind of experiment: Inhibition of His-tagged human recombinant full length ME1 using L-malate and beta-NADP+ as substrate preincubated with enzyme for 5 mins followed by beta-NADP+ challenge and incubated under shaking for 5 mins followed by incubation for 2 hrs without shaking by resorufin dye based fluorescence analysis. The following applies: read-out: IC50.

Data set [5] is described as follows: Cytotoxicity against human HCE-T cells assessed as inhibition of cell growth. The class given is toxicity, cell-based.
Data set [6] in a line: Selectivity for SMAD4/ME2-null human BXPC-3 cells over human HCE-T cells.
Data set [7] relates to BXPC-3. As to the kind of experiment: cells. Particulars: Homo sapiens, BXPC-3, 72 h.
Description: Antiproliferative activity against SMAD4/ME2-null human BXPC-3 cells assessed as inhibition of cell growth incubated for 72 hrs by CellTiter-Glo luminescence assay
For data set [8], the target named is T3, NADP-dependent malic enzyme, mitochondrial (Homo sapiens) (UniProt Q16798).
T3 sequence (whole entry): T1 sequence (Q16798 whole entry)
The following applies: dose 0.1 µM, time 190.0 min.

Data set [9] relates to BXPC-3. The data set is described as follows: Antiproliferative activity against SMAD4/ME2-null human BXPC-3 cells assessed as inhibition of cell growth at 1 uM incubated for 72 hrs by CellTiter-Glo luminescence assay. The class given is functional. In general terms: Cellular ATP, detected with luciferase, serves as a proxy for viable cell number.

SMILES strings stand for the structures.

Regarding `COc1ccc(N2CCN(C(=O)CCc3ccccc3)CC2)nc1`, the inhibition at 10 µM in data set [1] worked out at 13%.
Take `O=C(Cc1ccccc1)NC1CCN(c2ccc(O)cc2)CC1`: the IC50 – broadly, the concentration that gives 50% inhibition – in [2] was determined as 0.07 µM.
Take `O=C(CCc1ccc(Cl)cc1)N1CCN(c2ccc(O)cn2)CC1`: the IC50 was 1.59 µM in data set [3]; 1.02 µM in data set [4]; > 30 µM in [5]; 0.14 µM in data set [2]; 6.3 µM in data set [7]. Moreover, in [6], the Selectivity ratio was 5. In addition, the inhibition at 10 µM in data set [1] turned out to be 71%.
Regarding `O=C(Cc1ccccc1)N1CCN(c2ccc(O)cc2)CC1`, the IC50 in data set [3] is 0.19 µM; in data set [4] it was 0.18 µM; in [2] it was 0.1 µM; in data set [7], 6 µM. Moreover, in data set [6], the Selectivity ratio is 5. Besides, the inhibition at 10 µM in [1] is 80%.
Molecule `Oc1ccc(N2CCN(CC3CC3)CC2)nc1` registered an inhibition in data set [8] of 0%. Moreover, the inhibition at 1 µM in [9] was found to be 0%. Besides, the inhibition at 10 µM in [1] was determined as 0%.
As for `COCCOc1ccc(CCC(=O)N2CCN(c3ccc(O)cn3)CC2)cc1`, the IC50 was 2.6 µM in data set [3], 3.5 µM in [4] and 0.58 µM in data set [2]. Further, in data set [6], the Selectivity ratio is given as 5. In addition, the inhibition at 10 µM in data set [1] worked out at 3%.
`CC(C)CN1CCN(c2ccc(O)cn2)CC1` displayed an inhibition in data set [8] of 0%. The inhibition at 1 µM in data set [9] was 0%. For the same molecule, the inhibition at 10 µM in data set [1] stood at 6%.
Consider `O=C(CCc1cc2ccccc2s1)N1CCN(c2ccc(O)cn2)CC1`, for which the IC50 worked out at 1.63 µM in [3], 1.2 µM in [4] and 0.24 µM in data set [2]. The Selectivity ratio in [6] stood at 5. Moreover, the inhibition at 10 µM in [1] turned out to be 46%.
Take `O=C(Nc1nnn[nH]1)C1c2ccccc2OC2C=CC=CC21` (stereo unspecified): the concentration for half-maximal inhibition (IC50) came out at 0.2 µM in data set [3], 0.22 µM in data set [4] and 21 µM in data set [2].
As to `O=C(CCc1cccs1)N1CCN(c2ccc(O)cn2)CC1`, the IC50 in [3] turned out to be 1.29 µM; in [4], 1.32 µM; in [5] it was 25 µM; in data set [2] it was 0.16 µM; in data set [7], 4.6 µM. Also, the Selectivity ratio in data set [6] came to 5. In [1], the inhibition at 10 µM came to 76%.
For the molecule `O=C(C1CC1)N1CCN(c2ccc(O)cn2)CC1`, the inhibition in data set [8] was determined as 14%. The inhibition at 1 µM in [9] was found to be 0%. Further, the inhibition at 10 µM in data set [1] stood at 10%.
Taken in the same sequence, the figures for `CC(=O)N1CCN(c2ccc(O)cn2)CC1` were 23%, 0% and 0%.
Consider `O=C(CCc1ccccc1)N1CCN(c2ccc(F)cn2)CC1`, for which the inhibition at 10 µM in data set [1] turned out to be 0%. Further, the IC50 in data set [7] is > 30 µM.
Take `CCCCOc1ccc(CCC(=O)N2CCN(c3ccc(O)cn3)CC2)cc1`: the IC50 in data set [3] turned out to be 3.9 µM; in [4] it was 1.31 µM; in data set [2] it was 0.39 µM; in data set [7], 15 µM. The Selectivity ratio in data set [6] is 5. In addition, the inhibition at 10 µM in data set [1] amounted to 7%.
Consider `CCCCOc1ccc(CCC(=O)N2CCN(c3ccc(O)cc3)CC2)cc1`, for which the IC50 in data set [3] came to 0.35 µM; in data set [4], 0.42 µM; in [2], 0.06 µM. Besides, in data set [6], the Selectivity ratio amounted to 5. In data set [1], the inhibition at 10 µM amounted to 29%.
Taken in the same sequence, the figures for `COc1ccc(CCC(=O)N2CCN(c3ccc(O)cn3)CC2)cc1` were 2.5 µM, 1.9 µM, 0.47 µM, 5 and 13%.
For `O=C(CCc1ccc(F)cc1)N1CCN(c2ccc(O)cn2)CC1` the same measures were 1.66 µM, 1.74 µM, 0.41 µM, 5 and 48%.
`O=C(O)c1cc2ccccc2c(Cc2cc3ccccc3c(C(=O)O)c2O)c1O`: the half-inhibitory concentration (IC50) in data set [3] was determined as 2.8 µM; in data set [4] it was 10.3 µM; in data set [2], 5.6 µM.
In the case of `O=C(Nc1nnn[nH]1)c1cc(-c2ccccc2)nc2ccccc12`, the concentration for half-maximal inhibition (IC50) was found to be 1.7 µM in [3], 13.8 µM in [4] and 5.1 µM in data set [2].
`O=C(/C=C/c1ccccc1)N1CCN(c2ccc(O)cc2)CC1`: the IC50 in [3] amounted to 0.23 µM; in data set [4] it was 0.17 µM; in data set [2] it was 0.08 µM. In addition, the Selectivity ratio in [6] amounted to 5. Also, the inhibition at 10 µM in data set [1] came to 29%.
As for `O=C(Cc1ccc(Cl)cc1)N1CCN(c2ccc(O)cc2)CC1`, the IC50 in data set [3] is 0.15 µM; in data set [4], 0.15 µM; in data set [2], 0.13 µM; in data set [7] it was 5.7 µM. In [6], the Selectivity ratio was determined as 5. Moreover, the inhibition at 10 µM in [1] is 80%.
In the case of `CC(C)(CC(=O)N1CCN(c2ccc(O)cn2)CC1)c1ccc(Cl)cc1`, the IC50 is 2.8 µM in data set [3]; 1.5 µM in [4]; > 30 µM in data set [5]; 0.36 µM in data set [2]; 5.4 µM in [7]. In addition, the Selectivity ratio in data set [6] is listed as 5. In addition, in data set [1], the inhibition at 10 µM came to 97%.
In turn, `O=C(Nc1ccccc1)C1CCN(c2ccc(O)cc2)CC1` showed an IC50 in data set [2] of 0.13 µM.
As to `CC(C)(CC(=O)N1CCN(c2ccc(O)cn2)CC1)c1ccc(F)cc1`, the 50% inhibitory concentration (IC50) in data set [3] is 1.11 µM; in data set [4] it was 1.3 µM; in data set [5] it was > 30 µM; in [2], 0.31 µM; in data set [7] it was 5.9 µM. Moreover, in data set [6], the Selectivity ratio was 5. Further, the inhibition at 10 µM in data set [1] is 100%.
Consider `O=C(Nc1ccccc1)N1CCN(c2ccc(O)cc2)CC1`, for which the IC50 was 0.22 µM in [3], 0.2 µM in [4], 0.11 µM in [2] and 31 µM in data set [7]. Also, the Selectivity ratio in data set [6] worked out at 5. For the same molecule, in data set [1], the inhibition at 10 µM was determined as 28%.
`O=C(CCc1ccccc1)N1CCN(c2ccc(O)cc2)CC1`: the half-maximal inhibitory concentration (IC50) in data set [3] was 0.27 µM; in data set [4], 0.27 µM; in data set [5], > 30 µM; in data set [2] it was 0.1 µM; in [7], 3.6 µM. Besides, the Selectivity ratio in data set [6] worked out at 5. Also, the inhibition at 10 µM in data set [1] came out at 93%.
As to `O=C(Cc1ccc(C(F)(F)F)cc1)N1CCN(c2ccc(O)cc2)CC1`, the IC50 was determined as 0.41 µM in [3], 0.21 µM in data set [4] and 0.33 µM in data set [2]. Besides, the Selectivity ratio in [6] stood at 5. In addition, the inhibition at 10 µM in [1] amounted to 39%.
Taken in the same sequence, the figures for `O=C1CC(N2CCN(c3ccc(O)cc3)CC2)C(=O)N1c1ccccc1` (stereo unspecified) were 0.2 µM, 0.22 µM, 0.15 µM, 5 and 0%.
The molecule `Oc1ccc(N2CCNCC2)nc1` displayed an inhibition in data set [8] of 0%. The inhibition at 1 µM in data set [9] came to 2%. The inhibition at 10 µM in [1] was determined as 12%.
With `O=C(COc1ccccc1)N1CCN(c2ccc(O)cc2)CC1`, the concentration for half-maximal inhibition (IC50) in data set [3] was determined as 0.39 µM; in data set [4] it was 0.63 µM; in data set [2] it was 0.13 µM. The Selectivity ratio in data set [6] came out at 5. In data set [1], the inhibition at 10 µM was 55%.
Regarding `O=C(Cc1ccccc1)N1CCN(c2ccc(O)cn2)CC1`, the IC50 in data set [3] was determined as 0.98 µM; in data set [4], 1.6 µM; in data set [2], 0.2 µM.
As to `O=C(CN1CCN(c2ccc(O)cc2)CC1)Nc1ccccc1`, the IC50 was 0.36 µM in data set [3], 0.34 µM in data set [4] and 0.11 µM in data set [2]. For the same molecule, the Selectivity ratio in data set [6] is reported as 5. The inhibition at 10 µM in [1] stood at 18%.

The record behind these values is ChEMBL document CHEMBL5223163, “In the Quest for Potent and Selective Malic Enzyme 3 Inhibitors for the Treatment of Pancreatic Ductal Adenocarcinoma” (ACS Med Chem Lett, 2023).
